Data taken from patent US20090221684A1, “Molecules for Gene Delivery and Gene Therapy, and Methods of Use Thereof” (priority 2005, published 2009).
Read-outs that look alike come from different tables or passages of the source.

Key:
[1] = test system: CHO cells; assay: Gene transfection efficiency in a cell population by optical microscopy; assay type: cell-based, Chinese hamster; conditions: reporter gene β-gal
Description: Importantly, more than 70% of the cells had been transfected as compared to less than 40% when using other transfection reagents.

[2] = test system: Chinese hamster ovarian (CHO) cells; assay: β-galactosidase reporter gene transfection in CHO cells; assay type: cell-based
Experimental: The reporter gene was first mixed with the lipids in potassium phosphate buffer (PBS) at room temperature. We tested two different lipid/DNA ratios (5:1; and 20:1) while keeping the zwitterionic/DOTAP ratio constant at 1:1. Next, the lipid/DNA complexes were added to the cells. The amount of DNA used was the same as used in the naked DNA control (no lipid), and the negative control was compound 4 without DNA. After incubation at 37° C. and 5% CO2 for 2 h, the medium was removed and fresh growth medium was added. Transfection efficiencies were assessed after 48 h using the β-galactosidase enzyme assay in conjunction with a standard curve. The efficiency of each transfection was calculated as β-gal activity normalized to total protein.
Transfection assays were performed using the well established beta-galactosidase transfection assay. In these experiments the beta-galactosidase gene is transfected into cells. Next, the expressed enzyme then cleaves a chemiluminescent reporter that is detected. […]
Chinese hamster ovarian cells (CHO, ATCC, Manassas, Va.) were cultured in complete F12K media (ATCC) containing 10% fetal calf serum (Sigma) and 1% penicillin and streptomycin (500 IU/ml and 5000 μg/ml, respectively, Mediatech, Herndon, Va.) at 37° C. in 5% CO2 with humidity. […] Transfection efficiencies were assessed 24 h to 48 h post transfection depending on the experimental design. […]

[3] = test system: CHO cells; assay: Cytotoxicity, formazan-based proliferation assay and total protein assay, CHO cells; conditions: for cytotoxicity (cell proliferation/number as percentage of non-treated cells): 24 hours after addition
Experimental: Cytotocixity experiments were also performed with CHO and L6 cells using a formazan-based proliferation assay and a total protein assay. The cells were seeded onto a 96-multiwell plate with an appropriate density of 1×10^4 cells per well. […] After another 24 hours, cell proliferation/number was determined and expressed as a percentage of non-treated cells.
Cytotoxicity was assessed using both a formazan-based proliferation assay (CellTiter 96 AQueous One Solution Cell Proliferation Assay kit, Promega) and a total protein-based assay (Pierce). Briefly, CHO cells were seeded onto a multi-well microtiter plate with an appropriate density, depending on the size of the well (e.g., 1×10^4 cells per well in a 96-well plate). After 48 h, MTS substrate was added to each well and the plate and incubated for 4 h at 37° C. in a humidified, 5% CO2 incubator. The amount of soluble formazan produced by cellular reduction of the substrates MTS was recorded at 490 nm using a multi-well plate reader. For the total protein-based proliferation assay, cells were lysed at the same time when transfection efficiency was assayed. A 5 μL of lysates were transferred to a separate multi-well plate. Total protein contents were assessed using the Coomassie Blue protein kit (Pierce, Rockford, Ill.) following the manufacturer protocol. Negative and positive controls were non-treated cells and commercial lipids treated cells, respectively. The proliferation results were expressed as percentages of non-treated cells.

[4] = test system: GAPDH; assay: siRNA delivery, KDalert GAPDH gene knockdown assay; assay type: cell-based; conditions: 48 hr after siRNA transfection
Experimental: Trypsine adherent cells and dilute in normal growth medium to 1×10^5 cells per ml. […] Dilute RNA in serum free medium. Mix the diluted RNA with the transfectant reagent, incubate for 10 min at room temperature and dispense into a culture plate. Depending on the experimental design, the ration of lipid, siRNA, pH, and incubation time was varied. Overlay cell suspension onto the transfection mixture. Incubate at 37° C. and 5% CO2. Assay for gene knockdown were assessed after 48 h depending on the experimental protocol.
The gene knockdown assay performed was KDalert™ GAPDH Assay (Ambion) following the manufacturer protocol. Briefly, 48 hr after siRNA transfection, aspirate the culture medium from transfected cells. Add 200 μl KDalert Lysis Buffer to each sample well. Incubate at 4° C. for 20 min to lyse the cells. Pipet the cell lysate up and down 4-5 times to homogenize the lysate. Transfer 10 μl of each lysate or GAPDH Enzyme dilution (including the GAPDH Working Stock) to the wells of a clean 96 well plate. Working quickly, add 90 μl of KDalert Master Mix to each sample using a multi-channel pipettor to dispense the KDalert Master Mix quickly. Measure the increase in fluorescence of the samples at room temp. Using the reagent above we saw greater than 80% knockdown of the protein.

[5] = Liposome average diameter by dynamic light scattering; assay type: physicochemical; conditions: extruded through 50 nm membrane, Tris buffer pH 7.4
Description: (§1) It is likely that 4 will form bilayers. […] After 20 extrusions, a homogeneous liposome solution was observed.

[6] = test system: L6 cells; assay: Cytotoxicity, formazan-based proliferation assay and total protein assay, L6 cells; assay type: cell-based; conditions: 24 hours after addition
[7] = Differential scanning calorimeter (DSC) trace of hydrated amphiphile; assay type: physicochemical
[8] = Transmission electron micrographs (TEM) of vesicles; assay type: physicochemical
Description: as §1

[9] = test system: esterase
Experimental: Next, we prepared vesicles of 4, 4/DOTAP, and DOPC/DOTAP. A chloroform solution containing 4, 4/DOTAP, or DOPC/DOTAP was added to a pear shaped flask and the solution was evaporated under vacuum leaving a thin film deposited onto the flask wall. One mL of Tris buffer (100 mM Tris, 100 mM NaCl, pH 7.4) was then added and the film was peeled off by vortexing. The milky aqueous suspension was extruded through a polycarbonate membrane (50 nm) using an Aventi polar lipids mini-extruder. After 20 extrusions, a homogeneous liposome solution was observed.

[10] = test system: calf thymus DNA; assay: Ethidium bromide displacement fluorescence assay; assay type: binding; conditions: fluorescence intensity as a function of vector/DNA charge ratio
Experimental: The propensity of the lipids to bind DNA was measured via an ethidium bromide displacement fluorescence assay. This assay entailed measuring the reduction of the fluorescence intensity of the DNA-intercalated ethidium bromide, as this fluorescent probe is displaced by the cationic amphiphile. […] The results obtained with DOTAP, DOTAP/DOPE, and DOPC/DOTAP are consistent with previous reports. A 1:1 assembly is formed between the lipids and DNA.
Binding studies were carried out by competitive displacement fluorimetric assay with DNA-bound ethidium bromide. This assay involves the addition of aliquots of the compound to a 3 mL solution of EthBr (1.3 μM) and calf thymus DNA (3 μM) in buffer (100 mM NaCl, 100 mM Tris, pH 7.4) with the decrease of fluorescence (λexc=546 nm, λem=600 nm; 1 cm path length glass cuvette, slit width 3 nm) recorded after 5 min equilibrium time following each addition.

## 1,2-Di-tetradecanoyl-3-Lys-Trp-Lys-rac-glycerol
[1]
  cells transfected: more than 70%
[2]; CHO cells, Example 15, β-gal reporter gene
  transfection capability: high transfection capability
[3]; CHO cells, Example 16, MTS and total protein assays
  cell cytotoxicity: minimal cell cytotoxicity
[4]
  knockdown of the protein: greater than 80%

## NCCOP(=O)(O)OCC(COC(=O)CCCCCCCCCCC(=O)OCc1ccccc1)OC(=O)CCCCCCCCCCC(=O)OCc1ccccc1 (racemic) [1,2-Di-dodecanedioyl benzyl ester-3-phosphoethanolamine-rac-glycerol]
[3]
  cell cytotoxicity: minimal cell cytotoxicity

## C[N+](C)(C)CCOP(=O)([O-])OCC(COC(=O)CCCCCCCCCCC(=O)OCc1ccccc1)OC(=O)CCCCCCCCCCC(=O)OCc1ccccc1 (racemic) [Compound 4, 1,2-Di-dodecanedioyl benzyl ester-3-phosphocholine-rac-glycerol]
[5]
  average diameter of the liposomes: 79 nm
[2]; assessed after 48 h, result in words
  transfection efficiency (β-gal activity normalized to total protein): does not transfect DNA
[6]
  cytotoxicity (cell proliferation/number as percentage of non-treated cells): None of the amphiphiles showed significant cytotoxicity
[3]; CHO cells
  cytotoxicity (cell proliferation/number as percentage of non-treated cells): None of the amphiphiles showed significant cytotoxicity
[7]
  phase-transition temperature: ~44 °C
[8]
  average size of vesicular organizations: about 100 nM
[9]
  time to loss of 4: four
[9]; esterase added to liposomes prepared from 4, HPLC
  time to complete hydrolysis of 4 to yield 5: 8 h
[10]
  displacement of DNA-intercalated ethidium bromide (fluorescence intensity): do not displace EtBr

## CCCCCCCC/C=C\CCCCCCCC(=O)OC[C@H](COP(=O)([O-])OCC[N+](C)(C)C)OC(=O)CCCCCCC/C=C\CCCCCCCC [DOPC, dioleylphosphatidyl choline]
[10]
  displacement of DNA-intercalated ethidium bromide (fluorescence intensity): do not displace EtBr

## CCCCCCCC/C=C\CCCCCCCC(=O)OC[C@H](COP(=O)(O)OCCN)OC(=O)CCCCCCC/C=C\CCCCCCCC [DOPE, dioleylphosphatidyl ethanolamine]
[10]
  displacement of DNA-intercalated ethidium bromide (fluorescence intensity): do not displace EtBr

## CCCCCCCC/C=C\CCCCCCCC(=O)OCC(C[N+](C)(C)C)OC(=O)CCCCCCC/C=C\CCCCCCCC (stereo not shown) [DOTAP, 1,2-dioleoyloxy-3-(trimethylammonio)-propane, reference compound]
[6]
  cytotoxicity (cell proliferation/number as percentage of non-treated cells): None of the amphiphiles showed significant cytotoxicity
[3]; CHO cells
  cytotoxicity (cell proliferation/number as percentage of non-treated cells): None of the amphiphiles showed significant cytotoxicity
[10]
  displacement of DNA-intercalated ethidium bromide (fluorescence intensity): fluorescence intensity decreases
